Experimental data: the supplement of paper PMC10307832

How the values were obtained:
Assay in all cases: relative viability (nuclei count vs DMSO), 5 days (fraction); higher = more cells survive
[1] = compound: C[As](C)SC[C@H](NC(=O)CC[C@H](N)C(=O)O)C(=O)NCC(=O)O [Darinaparsin] + Nc1nc2[nH]cc(CCc3ccc(C(=O)N[C@@H](CCC(=O)O)C(=O)O)cc3)c2c(=O)[nH]1 [Pemetrexed] (partner 0.2 µM)
In short: (§1)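 One day after seeding in 1536-well plates, lung cancer cell lines were dosed by pin tool. Dosing was either single-drug or a fixed anchor-drug dose plus five library-drug doses (not always all listed) in √10 steps. After 5 days, nuclei were stained in one fix-and-stain step and counted on 4× images, and relative viability is the nuclei count of treated wells over that of vehicle wells, given as the median of duplicate plates.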

Darinaparsin + Dasatinib = compound: C[As](C)SC[C@H](NC(=O)CC[C@H](N)C(=O)O)C(=O)NCC(=O)O [Darinaparsin] + Cc1nc(Nc2ncc(C(=O)Nc3c(C)cccc3Cl)s2)cc(N2CCN(CCO)CC2)n1 [Dasatinib] (partner 0.075 µM)
In short: as §1

AZ628 + Pemetrexed = compound: CC1=C(C=C(C=C1)NC(=O)C2=CC(=CC=C2)C(C)(C)C#N)NC3=CC4=C(C=C3)N=CN(C4=O)C [AZ628] + Nc1nc2[nH]cc(CCc3ccc(C(=O)N[C@@H](CCC(=O)O)C(=O)O)cc3)c2c(=O)[nH]1 [Pemetrexed] (partner 0.2 µM)
In short: as §1

QS11 + Tozasertib = compound: C1CC2=C(C1)C=C(C=C2)OC3=NC(=C4C(=N3)N(C=N4)CC5=CC=C(C=C5)C6=CC=CC=C6)N[C@@H](CC7=CC=CC=C7)CO [QS11] + Cc1cc(Nc2cc(N3CCN(C)CC3)nc(Sc3ccc(NC(=O)C4CC4)cc3)n2)n[nH]1 [Tozasertib] (partner 0.1 µM)
In short: as §1

Cell Line | relative viability ([1]; first compound 0.08 µM) | relative viability ([1]; first compound 0.8 µM) | relative viability ([1]; first compound 2.53 µM) | relative viability ([1]; first compound 8 µM) | relative viability (Darinaparsin + Dasatinib; first compound 0.08 µM) | relative viability (Darinaparsin + Dasatinib; first compound 0.8 µM) | relative viability (Darinaparsin + Dasatinib; first compound 2.53 µM) | relative viability (Darinaparsin + Dasatinib; first compound 8 µM) | relative viability (AZ628 + Pemetrexed; first compound 0.08 µM) | relative viability (AZ628 + Pemetrexed; first compound 0.253 µM) | relative viability (AZ628 + Pemetrexed; first compound 0.8 µM) | relative viability (AZ628 + Pemetrexed; first compound 2.53 µM) | relative viability (AZ628 + Pemetrexed; first compound 8 µM) | relative viability (QS11 + Tozasertib; first compound 0.08 µM) | relative viability (QS11 + Tozasertib; first compound 0.253 µM) | relative viability (QS11 + Tozasertib; first compound 0.8 µM) | relative viability (QS11 + Tozasertib; first compound 2.53 µM) | relative viability (QS11 + Tozasertib; first compound 8 µM)
NCI-H1666 | 0.91 | 0.854 | 0.984 | 0.955 | 0.817 | 0.814 | 0.799 | 0.832 | 0.788 | 0.79 | 0.766 | 0.788 | 0.715 | 0.61 | 0.532 | 0.515 | 0.521 | 0.383
NCI-H1648 | – | 0.716 | – | 0.683 | – | – | – | – | 1.06 | 0.702 | 0.614 | 0.549 | 0.642 | – | 0.577 | – | 0.396 | 0.642
NCI-H1650 | 0.426 | 0.369 | 0.342 | 0.396 | 0.397 | 0.36 | 0.343 | 0.297 | 0.403 | 0.386 | 0.419 | 0.431 | 0.38 | 0.244 | 0.368 | 0.436 | 0.358 | 0.402
NCI-H647 | 0.189 | 0.156 | 0.166 | 0.146 | 0.21 | 0.205 | 0.149 | 0.233 | 0.201 | 0.17 | 0.179 | 0.161 | 0.151 | 0.287 | 0.268 | 0.291 | 0.323 | 0.197
NCI-H1623 | – | – | – | – | 0.574 | 0.548 | 0.518 | 0.553 | – | – | – | – | – | 0.449 | 0.546 | 0.427 | 0.466 | 0.434
A-427 | 1.06 | 0.934 | 1.1 | 1.02 | 0.843 | 0.809 | 0.707 | 0.733 | 1.12 | 0.97 | 1.01 | 0.957 | 0.609 | 0.21 | 0.207 | – | 0.209 | 0.201
NCI-H1915 | 0.495 | 0.446 | 0.494 | 0.662 | 0.329 | 0.32 | 0.317 | 0.323 | 0.518 | 0.506 | 0.455 | 0.359 | 0.242 | 0.472 | 0.494 | – | 0.432 | 0.374
ABC-1 | – | – | – | – | 0.56 | 0.451 | 0.572 | 0.715 | – | – | – | – | – | 0.191 | 0.157 | 0.174 | 0.168 | 0.183
NCI-H1563 | 0.761 | 0.765 | 0.669 | 0.866 | 0.379 | 0.442 | 0.5 | 0.479 | 0.773 | 0.827 | 0.86 | 0.756 | 0.764 | – | – | – | – | –
NCI-H1792 | 1.14 | 0.829 | – | 0.921 | 1.28 | 0.849 | 0.804 | 0.957 | 1 | 0.677 | 0.457 | 0.583 | 0.368 | – | – | – | – | –
NCI-H727 | – | – | – | – | 0.401 | 0.356 | 0.414 | 0.416 | – | – | – | – | – | 0.58 | 0.602 | 0.539 | 0.647 | 0.511
